Assays:
[1] = refractive index (Na D-line) (dimensionless); details: 101.33 kPa, Liquid, Standard Abbe refractometry
[2] = Liquid, Ebulliometric method (Recirculating still)
[3] = refractive index (Na D-line) (dimensionless); xn = mol fraction of the nth substance listed; details: 293.15 K, 101.3 kPa, Liquid, Standard Abbe refractometry

C=CCCCC [hex-1-ene]
Details	refractive index	vapor or sublimation pressure [kPa]
[1], 293.15 K	1.3881	–
[1], 298.15 K	1.3851	–
[2], 298.99 K	–	25.68
[2], 302.85 K	–	30.13
[2], 306.73 K	–	35.19
[2], 310.9 K	–	41.41
[2], 316.17 K	–	50.46
[2], 320.92 K	–	59.91
[2], 323.15 K	–	64.82
[2], 325.41 K	–	70.09
[2], 329.11 K	–	79.46
[2], 330.99 K	–	84.63
[2], 332.94 K	–	90.24
[2], 333.15 K	–	90.94
[2], 336.04 K	–	99.73

Cc1ccccc1 [toluene]
Details	refractive index
[1], 298.15 K	1.4939

C=CCCCC [hex-1-ene] + c1ccsc1
Details	refractive index
[3], x2 = 0	1.3881

CCCCCC [hexane] + c1ccsc1
Details	refractive index
[3], x2 = 0	1.3751

c1ccsc1 [thiophene] + CCCCCC
[3]
Details	refractive index
x1 = 0.027	1.3774
x1 = 0.05	1.3794
x1 = 0.08	1.3822
x1 = 0.096	1.3836
x1 = 0.194	1.3933
x1 = 0.292	1.4039
x1 = 0.394	1.4161
x1 = 0.494	1.4296
x1 = 0.588	1.4438
x1 = 0.697	1.4624
x1 = 0.797	1.4814
x1 = 0.897	1.5034
x1 = 0.919	1.5084
x1 = 0.949	1.5158
x1 = 0.974	1.5219
x1 = 1	1.5287

c1ccsc1 [thiophene]
Details	refractive index, 293.15 K	refractive index, 298.15 K	vapor or sublimation pressure, 323.15 K [kPa]	vapor or sublimation pressure, 333.15 K [kPa]	vapor or sublimation pressure, 338.15 K [kPa]
[1]	1.5287	1.5255	–	–	–
[2]	–	–	31.21	45.44	54.27

CCCCCC [hexane]
Details	refractive index	vapor or sublimation pressure [kPa]
[1], 293.15 K	1.3751	–
[1], 298.15 K	1.3724	–
[2], 307.31 K	–	29.67
[2], 311.36 K	–	34.86
[2], 314.93 K	–	40.02
[2], 316.81 K	–	43.01
[2], 321.97 K	–	52.02
[2], 323.15 K	–	54.25
[2], 326.94 K	–	62.11
[2], 331 K	–	71.39
[2], 335.54 K	–	83.09
[2], 338.15 K	–	90.44
[2], 338.59 K	–	91.73
[2], 342 K	–	102.27

c1ccsc1 [thiophene] + C=CCCCC
[3]
Details	refractive index
x1 = 0.024	1.3903
x1 = 0.051	1.3926
x1 = 0.076	1.3949
x1 = 0.094	1.3966
x1 = 0.185	1.4055
x1 = 0.288	1.4163
x1 = 0.378	1.4266
x1 = 0.486	1.4402
x1 = 0.579	1.453
x1 = 0.683	1.4688
x1 = 0.788	1.4866
x1 = 0.89	1.5058
x1 = 0.91	1.5097
x1 = 0.948	1.5174
x1 = 0.974	1.523
x1 = 1	1.5287
